The source of these data is US20250345277A1, “Ionizable Liposome, Preparation Thereof, and Application Thereof in Gene Delivery” (MAXIRNA (ZHEJIANG) TECHNOLOGY CO. LTD., priority 2021, published 2025).

One data set relates to PBMC cells. As to the kind of experiment: In vitro transfection of PBMC cells with EGFP mRNA LNP preparation (flow cytometry). Further details: Cell Viability: concentration or dose not given beside the values. The note with it: for Cell Viability / Positive Rate (EGFP): LNP preparation added with ApoE4; for Fluorescence Intensity: with ApoE4, EGFP mRNA expression level normalized based on the sample with the highest fluorescence intensity. In kind it is cell-based. From the text:
(§1) The description is based on peripheral blood mononuclear cells PBMC (Shanghai Oribiotech Co., Ltd.), human peripheral blood leukemia T cell Jurkat (ATCC), tumor infiltrating lymphocyte TIL (isolated from resected tumor tissue of a liver cancer patient, the preparation method refers to CN114763530A), mouse bone marrow-derived dendritic cells DC2.4 (Cell Bank of the Chinese Academy of Sciences), and Chinese hamster ovary cells CHO (ATCC) were used as verified cell lines for liposome transfection. PBMC, Jurkat, and TIL cells grew in suspension, while DC2.4 and CHO cells grew by adherent culture. All the operation steps of cell culture must strictly abide by the prescribed procedures, and sterile reagents is used to perform aseptic operations under a sterile workbench. The main steps are as follows: • 1) Cell recovery: the preserved cell cryopreservation solution was taken out of the −80° C. refrigerator, and was immediately put in a 37° C. water bath for rapid and continuous shaking, and was completely melted within one minute. Fresh medium was added to the 15 mL centrifuge tube in advance, and the cell solution was added to the centrifuge tube in a biological safety cabinet. A centrifuge tube of the same quality was taken and placed symmetrically in a centrifuge, centrifuged at a low speed at 1200 rpm for 5 min. After centrifugation, the supernatant was removed, and an appropriate amount of medium was slowly added along the tube wall. After the cells were evenly dispersed by blowing gently, the cell suspension was pipette and added to the culture bottle prepared in advance. The state and distribution of the cells in the early stage of recovery were observed under a microscope. The culture bottle was placed in a 5% CO2 incubator and incubated at 37° C., and the recovery time was recorded. • 2) Cell subculture: Under the microscope, if the cell density in the field of view reaches 80%-90%, the cells can be subcultured. Adherent cells need to be digested with trypsin. In order to avoid the residual serum in the culture medium to reduce the activity of trypsin, DPBS solution was added to wash once after removing the original culture medium. After remove the DPBS solution, trypsin was added to degrade the protein at the junction between cells. This separates the cells for further culture. The cells were gently shaked evenly and put into the incubator for digestion for 2 min. Immediately after the digestion was completed, an appropriate amount of medium was added to the original petri dish to terminate the digestion. Finally, the cells were carefully blowed off using a pipette and blowed until they are evenly dispersed, and then inoculated and subcultured at a certain ratio according to the experimental requirements.
• 1) Coating antibodies: 6-well plates were pre-coated, CD3 and CD28 antibodies were taken out from the −20° C. refrigerator, and melted for later use. The above two antibodies were added into the DPBS solution at a concentration of 5 µg/mL, mixed well, added into a six-well plate at 1 mL/well, put in a 37° C. incubator, and waited 4 hours for later use. • 2) PBMC recovery: the frozen PBMC cells were taken out from the −80° C. refrigerator, put in a 37° C. water bath to quickly thaw the cells, added to the preheated medium after thawing, centrifuged at 1200 rpm for 5 min, the supernatant was discarded, and an appropriate amount of AIMN-V medium with 500 U/ml IL-2 was added to resuspend PBMC. • 3) the DPBS coated with the antibody was removed with a pipette, the cell suspension was transferred to a six-well plate pre-coated with the antibody at 4 mL per well, placed in a 5% CO2 incubator at 37° C. for 3-5 days for activation and culture. • 4) According to the experimental arrangement, PBMC cells were plated on a 24-well plate 30 minutes in advance on the day of cell transfection. […]
A general note: Flow cytometry measures light scatter and fluorescence of single cells or particles in a stream.

Another data set has as its system CHO cells. As to the kind of experiment: In vitro transfection of CHO cells with EGFP mRNA LNP preparation. The class given is cell-based, Chinese hamster. The source says: (§2) The description is based on peripheral blood mononuclear cells PBMC (Shanghai Oribiotech Co., Ltd.), human peripheral blood leukemia T cell Jurkat (ATCC), tumor infiltrating lymphocyte TIL (isolated from resected tumor tissue of a liver cancer patient, the preparation method refers to CN114763530A), mouse bone marrow-derived dendritic cells DC2.4 (Cell Bank of the Chinese Academy of Sciences), and Chinese hamster ovary cells CHO (ATCC) were used as verified cell lines for liposome transfection. PBMC, Jurkat, and TIL cells grew in suspension, while DC2.4 and CHO cells grew by adherent culture. All the operation steps of cell culture must strictly abide by the prescribed procedures, and sterile reagents is used to perform aseptic operations under a sterile workbench. The main steps are as follows: • 1) Cell recovery: the preserved cell cryopreservation solution was taken out of the −80° C. refrigerator, and was immediately put in a 37° C. water bath for rapid and continuous shaking, and was completely melted within one minute. […] The culture bottle was placed in a 5% CO2 incubator and incubated at 37° C., and the recovery time was recorded. • 2) Cell subculture: Under the microscope, if the cell density in the field of view reaches 80%-90%, the cells can be subcultured. […]

Another data set deals with TIL cells. As to the kind of experiment: In vitro transfection of TIL cells with EGFP mRNA LNP preparation. The class given is cell-based, human.
Excerpt: as §1, with “In order to avoid the residual serum in the culture medium to reduce the activity of trypsin, DPBS solution was added to wash once after removing the original culture medium. After remove the DPBS solution, trypsin was added to degrade the protein at the junction between cells. This separates the cells for further culture. The cells were gently shaked evenly and put into the incubator for digestion for 2 min. Immediately after the digestion was completed, an appropriate amount of medium was added to the original petri dish to terminate the digestion. Finally, the cells were carefully blowed off using a pipette and blowed until they are evenly dispersed, and then inoculated and subcultured at a certain ratio according to the experimental requirements.” left out

A further data set concerns Jurkat cells. The data set can be described thus: In vitro transfection of Jurkat cells with EGFP mRNA LNP preparation. In kind it is cell-based, human.
Excerpt: as §2

Data set [1] is described as follows: In vitro stability test of LNP preparation stored at 4-8 °C. The class given is physicochemical. Conditions: stored at 4-8° C. for 16 weeks; transfection tested on DC2.4. The protocol:
The preparation from Example 2 was stored at 4° C.-8° C. Samples were taken every other week to test the transfection performance of the samples on DC2.4, the size of the nanoparticles and the polydispersity index PDI. The whole process lasted 16 weeks. […] Other LNP preparations were stored at 4-8° C. for 16 weeks, and the particle size, PDI, and cell transfection efficiency also maintained the initial state.

[2] abbreviates: after in vitro transfection, ApoE4 did not affect viability.

Regarding `CCCCCCCCCCC(O)CN(CCN1CCN(CCN(CCN(CC(O)CCCCCCCCCC)CC(O)CCCCCCCCCC)CCN(CC(O)CCCCCCCCCC)CC(O)CCCCCCCCCC)CC1)CC(O)CCCCCCCCCC` (stereo not drawn) [A-C12], in the data set with PBMC cells (PBMCs), the “Cell Viability” value amounted to 89.70%, the “Positive Rate (EGFP)” value is recorded as 73.30% and the “Fluorescence Intensity” value is 0.72.
For `CCCCCCCCCCCCC(O)CN(CCN1CCN(CCN(CCN(CC(O)CCCCCCCCCCCC)CC(O)CCCCCCCCCCCC)CCN(CC(O)CCCCCCCCCCCC)CC(O)CCCCCCCCCCCC)CC1)CC(O)CCCCCCCCCCCC` (stereo not drawn) [A-C14] the same measures were 91.20%, 72.30% and 0.76.
For `CCCCCCCCCCCCCCC(O)CN(CCN1CCN(CCN(CCN(CC(O)CCCCCCCCCCCCCC)CC(O)CCCCCCCCCCCCCC)CCN(CC(O)CCCCCCCCCCCCCC)CC(O)CCCCCCCCCCCCCC)CC1)CC(O)CCCCCCCCCCCCCC` (stereo not drawn) [A-C16] the same measures were 90.00%, 76.30% and 0.81.
On to `CCCCCCCCCCCCCCCCC(O)CN(CCN1CCN(CCN(CCN(CC(O)CCCCCCCCCCCCCCCC)CC(O)CCCCCCCCCCCCCCCC)CCN(CC(O)CCCCCCCCCCCCCCCC)CC(O)CCCCCCCCCCCCCCCC)CC1)CC(O)CCCCCCCCCCCCCCCC` (stereo not drawn) [A-C18], for which, in the data set on PBMC cells (PBMCs), the “Cell Viability” value is on record as 85.00%, the “Positive Rate (EGFP)” value was 81.90% and the “Fluorescence Intensity” value is on record as 0.87.
As to `CCCCCCCCCCC(O)CN(CCOCCN(CCOCCN(CC(O)CCCCCCCCCC)CC(O)CCCCCCCCCC)CCN1CCN(CCOCCN(CC(O)CCCCCCCCCC)CC(O)CCCCCCCCCC)CC1)CC(O)CCCCCCCCCC` (stereo not drawn) [B-C12, 19-(2-(4-(2-(2-(di(2-hydroxydodecyl)amino)ethoxy)ethyl)piperazin-1-yl)ethyl)-13, 15-bis(2-hydroxydodecyl)-16,22-dioxa-13,19,25-triazaheptakadecane-11,27-diol], in the data set with PBMC cells (PBMCs), the “Cell Viability” value was 85.00%, the “Positive Rate (EGFP)” value stood at 83.00% and the “Fluorescence Intensity” value was 0.81.
As for `CCCCCCCCCCCCC(O)CN(CCOCCN(CCOCCN(CC(O)CCCCCCCCCCCC)CC(O)CCCCCCCCCCCC)CCN1CCN(CCOCCN(CC(O)CCCCCCCCCCCC)CC(O)CCCCCCCCCCCC)CC1)CC(O)CCCCCCCCCCCC` (stereo not drawn) [B-C14], the “cell viability by flow cytometry (FIG. 1)” value with CHO cells (after in vitro transfection) is “high viability”; with TIL cells (setting [2]) it was “high viability”; in the data set with Jurkat cells (setting [2]) it was “high viability”; in the data set on PBMC cells (PBMCs, after in vitro transfection, ApoE4 did not affect viability) it was “high viability”. For the same compound, the “transfection efficiency (FIG. 2)” value in the data set with CHO cells (in the absence of AopE4) was “high transfection efficiency”; in the data set with TIL cells (in the absence of AopE4) it was “low transfection efficiency”; with Jurkat cells (in the absence of AopE4), “high transfection efficiency”; in the data set with PBMC cells (PBMC, in the absence of AopE4), “low transfection efficiency”. Moreover, the “change of transfection efficiency with ApoE4 (FIG. 3)” value in the data set with TIL cells (with ApoE4 versus without) was “increased”; with PBMC cells (PBMC, with ApoE4 versus without), “increased”. Besides, the “transfection efficiency (FIG. 3)” value with PBMC cells (PBMC, with ApoE4) was “over 75%”. In addition, in the data set on PBMC cells (PBMCs), the “Cell Viability” value is 90.00%. The “Positive Rate (EGFP)” value in the data set on PBMC cells (PBMCs) is 85.50%. Further, the “Fluorescence Intensity” value with PBMC cells (PBMCs) turned out to be 1. Further, the “particle size, PDI and cell transfection efficiency on storage (FIG. 8)” value in data set [1] is listed as “remained in the initial state”.
With `CCCCCCCCCCC(O)CN(CCOCCOCCN(CCOCCOCCN(CC(O)CCCCCCCCCC)CC(O)CCCCCCCCCC)CCN1CCN(CCOCCOCCN(CC(O)CCCCCCCCCC)CC(O)CCCCCCCCCC)CC1)CC(O)CCCCCCCCCC` (stereo not drawn) [C-C12], in the data set with PBMC cells (PBMCs), the “Cell Viability” value is recorded as 89.30%, the “Positive Rate (EGFP)” value stood at 56.50% and the “Fluorescence Intensity” value was 0.41.
For `CCCCCCCCCCC(O)CN(CCOCCOCCOCCN(CCOCCOCCOCCN(CC(O)CCCCCCCCCC)CC(O)CCCCCCCCCC)CCN1CCN(CCOCCOCCOCCN(CC(O)CCCCCCCCCC)CC(O)CCCCCCCCCC)CC1)CC(O)CCCCCCCCCC` [D-C12] the same measures were 85.60%, 65.60% and 0.27.
For `CCCCCCCCCCCCC(O)CN(CCOCCOCCOCCN(CCOCCOCCOCCN(CC(O)CCCCCCCCCCCC)CC(O)CCCCCCCCCCCC)CCN1CCN(CCOCCOCCOCCN(CC(O)CCCCCCCCCCCC)CC(O)CCCCCCCCCCCC)CC1)CC(O)CCCCCCCCCCCC` [D-C14] the same measures were 88.70%, 96.70% and 0.25.
On to `CCCCCCCCCCCCCCC(O)CN(CCOCCOCCOCCN(CCOCCOCCOCCN(CC(O)CCCCCCCCCCCCCC)CC(O)CCCCCCCCCCCCCC)CCN1CCN(CCOCCOCCOCCN(CC(O)CCCCCCCCCCCCCC)CC(O)CCCCCCCCCCCCCC)CC1)CC(O)CCCCCCCCCCCCCC` [D-C16], for which, in the data set with PBMC cells (PBMCs), the “Cell Viability” value is 82.20%, the “Positive Rate (EGFP)” value was determined as 71.70% and the “Fluorescence Intensity” value worked out at 0.32.
For `CCCCCCCCCCCCCCCCC(O)CC(CCOCCOCCOCCN(CCOCCOCCOCCN(CC(O)CCCCCCCCCCCCCCCC)CC(O)CCCCCCCCCCCCCCCC)CCN1CCN(CCOCCOCCOCCN(CC(O)CCCCCCCCCCCCCCCC)CC(O)CCCCCCCCCCCCCCCC)CC1)CC(O)CCCCCCCCCCCCCCCC` [D-C18] the same measures were 83.30%, 64.40% and 0.41.
For `CCCCCCCCCCCCC(O)CN(CCN(CCN1CCN(C)CC1)CCN(CC(O)CCCCCCCCCCCC)CC(O)CCCCCCCCCCCC)CC(O)CCCCCCCCCCCC` (stereo not drawn) [E-C14] the same measures were 86.50%, 64.60% and 0.12.
For `CCCCCCCCCCCCC(O)CN(CCOCCN(CCOCCN(CC(O)CCCCCCCCCCCC)CC(O)CCCCCCCCCCCC)CCN1CCN(C)CC1)CC(O)CCCCCCCCCCCC` (stereo not drawn) [F-C14] the same measures were 83.20%, 63.70% and 0.16.
For `CCCCCCCCCCCCC(O)CN(CCOCCOCCN(CCOCCOCCN(CC(O)CCCCCCCCCCCC)CC(O)CCCCCCCCCCCC)CCN1CCN(C)CC1)CC(O)CCCCCCCCCCCC` (stereo not drawn) [G-C14], in the data set on PBMC cells (PBMCs), the “Cell Viability” value came out at 79.40%, the “Positive Rate (EGFP)” value is 63.40% and the “Fluorescence Intensity” value was 0.1.
On to `CCCCCCCCCCCCC(O)CN(CCOCCOCCOCCN(CCOCCOCCOCCN(CC(O)CCCCCCCCCCCC)CC(O)CCCCCCCCCCCC)CCN1CCN(C)CC1)CC(O)CCCCCCCCCCCC` (stereo not drawn) [H-C14], for which, in the data set with PBMC cells (PBMCs), the “Cell Viability” value amounted to 81.70%, the “Positive Rate (EGFP)” value was 62.10% and the “Fluorescence Intensity” value turned out to be 0.07.
